# Reference: patent US12679824B2 (Hoffmann-La Roche Inc., priority 2020, dated 2026)
# System: Acinetobacter baumannii ATCC17961
# Assay: 90% Growth Inhibitory Concentration (IC90) determination, antimicrobial susceptibility testing
# Assay type: cell-based
# Details: Acinetobacter baumannii, ATCC17961, 16 h, Acinetobacter baumannii ATCC17961; Iso-Sensitest broth; growth by optical density at 600 nm over 16h; concentration inhibiting 90% of the growth; read-out: ATCC 17961 IC90
# Description: Antimicrobial Susceptibility Testing:
# 90% Growth Inhibitory Concentration (IC90) Determination
# The in vitro antimicrobial activity of the compounds was determined according to the following procedure:
# The assay used a 10-points Iso-Sensitest broth medium to measure quantitatively the in vitro activity of the compounds against Acinetobacter baumannii ATCC17961.
# Stock compounds in DMSO were serially twofold diluted (e.g. range from 50 to 0.097 μM final concentration) in 384 wells microtiter plates and inoculated with 49 μl the bacterial suspension in Iso-Sensitest medium to have a final cell concentration of ~5×10^(5) CFU/ml in a final volume/well of 50 ul/well. Microtiter plates were incubated at 35±2° C.
# Bacterial cell growth was determined with the measurement of optical density at λ=600 nm each 20 minutes over a time course of 16h. Growth inhibition was calculated during the logarithmic growth of the bacterial cells with determination of the concentration inhibiting 50% (IC50) and 90% (IC90) of the growth.
# Table 1 provides the 90% growth inhibitory concentrations (IC90) in micromoles per liter of the compounds of present invention obtained against the strain Acinetobacter baumannii ATCC17961.
row,SMILES,IC90 [nM]
1,"Cn1c(-c2cn(-c3ncc4cn[nH]c4n3)nc2C(F)(F)F)cnc1C(=O)Nc1ccc(C(=O)N2CCN(C(=O)C3CCNCC3)CC2)c(Cl)c1 [Example A9, N-[3-chloro-4-[4-(piperidine-4-carbonyl)piperazine-1-carbonyl]phenyl]-1-methyl-5-[1-(1h-pyrazolo[3,4-d]pyrimidin-6-yl)-3-(trifluoromethyl)pyrazol-4-yl]imidazole-2-carboxamide]",510
2,"CNc1ccc(-n2cc(-c3cnc(C(=O)Nc4ccc(C(=O)N5CCN(C(=O)[C@@H]6C[C@@H](O)CN6)CC5)c(Cl)c4)n3C)c(C(F)(F)F)n2)nc1 [Example D7, N-[3-chloro-4-[4-[(2S,4R)-4-hydroxypyrrolidine-2-carbonyl]piperazine-1-carbonyl]phenyl]-1-methyl-5-[1-[5-(methylamino)-2-pyridyl]-3-(trifluoromethyl)pyrazol-4-yl]imidazole-2-carboxamide]",280
3,"COCCn1ncc(-n2cc(-c3cnc(C(=O)Nc4ccc(C(=O)N5CCN(C(=O)C6CCNCC6)CC5)c(Cl)c4)n3C)c(C(F)(F)F)n2)c1C [Example E2, N-[3-chloro-4-[4-(piperidine-4-carbonyl)piperazine-1-carbonyl]phenyl]-5-[1-[1-(2-methoxyethyl)-5-methyl-pyrazol-4-yl]-3-(trifluoromethyl)pyrazol-4-yl]-1-methyl-imidazole-2-carboxamide]",470
4,"COc1ccc(-n2cc(-c3cnc(C(=O)Nc4ccc(C(=O)N5CCN(C(=O)C6CCNCC6)CC5)c(Cl)c4)n3C)c(C(F)(F)F)n2)nc1 [Example A13, N-[3-chloro-4-[4-(piperidine-4-carbonyl)piperazine-1-carbonyl]phenyl]-5-[1-(5-methoxy-2-pyridyl)-3-(trifluoromethyl)pyrazol-4-yl]-1-methyl-imidazole-2-carboxamide]",210
5,"Cc1ccc(-n2cc(-c3cnc(C(=O)Nc4ccc(C(=O)N5CCN(C(=O)C6CCNCC6)CC5)c(Cl)c4)n3C)c(C(F)(F)F)n2)nc1 [Example E6, N-[3-chloro-4-[4-(piperidine-4-carbonyl)piperazine-1-carbonyl]phenyl]-1-methyl-5-[1-(5-methyl-2-pyridyl)-3-(trifluoromethyl)pyrazol-4-yl]imidazole-2-carboxamide]",350
6,"CNc1ccc(-n2cc(-c3cnc(C(=O)Nc4ccc(C(=O)N5CCN(C(=O)[C@H]6NCC[C@@H]6O)CC5)c(Cl)c4)n3C)c(C(F)(F)F)n2)nc1 [Example D4, N-[3-chloro-4-[4-[(2S,3S)-3-hydroxypyrrolidine-2-carbonyl]piperazine-1-carbonyl]phenyl]-1-methyl-5-[1-[5-(methylamino)-2-pyridyl]-3-(trifluoromethyl)pyrazol-4-yl]imidazole-2-carboxamide]",520

# Continued, values first:
row,IC90 [nM],SMILES
1,840,"COc1cc(-n2cc(-c3cnc(C(=O)Nc4ccc(C(=O)N5CCN(C(=O)C6CCNCC6)CC5)c(Cl)c4)n3C)c(C(F)(F)F)n2)ncn1 [Example Z49, N-[3-chloro-4-(4-isonipecotoylpiperazine-1-carbonyl)phenyl]-5-[1-(6-methoxypyrimidin-4-yl)-3-(trifluoromethyl)pyrazol-4-yl]-1-methyl-imidazole-2-carboxamide]"
2,810,"Cn1c(-c2cn(-c3ccc(N)cn3)nc2C(F)(F)F)cnc1C(=O)Nc1ccc(C(=O)N2CC[C@H](CNC(=O)[C@@H]3C[C@@H](O)CN3)C2)c(Cl)c1 [Example Z44, 5-[1-(5-amino-2-pyridyl)-3-(trifluoromethyl)pyrazol-4-yl]-N-[3-chloro-4-[(3R)-3-[[[(2S,4R)-4-hydroxyprolyl]amino]methyl]pyrrolidine-1-carbonyl]phenyl]-1-methyl-imidazole-2-carboxamide]"
3,420,"CN(C(=O)c1ccc(NC(=O)c2ncc(-c3cn(-c4ccc(N)cn4)nc3C(F)(F)F)n2C)cc1Cl)C1CCNCC1 [Example Z13, 5-[1-(5-amino-2-pyridyl)-3-(trifluoromethyl)pyrazol-4-yl]-N-[3-chloro-4-[methyl(4-piperidyl)carbamoyl]phenyl]-1-methyl-imidazole-2-carboxamide]"
4,170,"Cn1c(-c2cn(-c3cc(N)c([N+](=O)[O-])cn3)nc2C(F)(F)F)cnc1C(=O)Nc1ccc(C(=O)N2CCN(C(=O)C3CCNCC3)CC2)c(Cl)c1 [Example Z85, 5-[1-(4-amino-5-nitro-2-pyridyl)-3-(trifluoromethyl)pyrazol-4-yl]-N-[3-chloro-4-[4-(piperidine-4-carbonyl)piperazine-1-carbonyl]phenyl]-1-methyl-imidazole-2-carboxamide]"
5,390,"Cn1c(-c2cn(-c3ccc(N)cn3)nc2C(F)(F)F)cnc1C(=O)Nc1ccc(C(=O)N2CCNCC2)c(Cl)c1 [Example Z32, 5-[1-(5-amino-2-pyridyl)-3-(trifluoromethyl)pyrazol-4-yl]-N-[3-chloro-4-(piperazine-1-carbonyl)phenyl]-1-methyl-imidazole-2-carboxamide]"
6,690,"Cn1c(-c2cn(-c3ccc(N)cn3)nc2C(F)(F)F)cnc1C(=O)Nc1ccc(C(=O)NCCCNC(=O)[C@@H]2C[C@@H](O)CN2)c(Cl)c1 [Example Z26, 5-[1-(5-amino-2-pyridyl)-3-(trifluoromethyl)pyrazol-4-yl]-N-[3-chloro-4-[3-[[(2S,4R)-4-hydroxyprolyl]amino]propylcarbamoyl]phenyl]-1-methyl-imidazole-2-carboxamide]"
7,600,"Cn1c(-c2cn(-c3cnc(N)cn3)nc2C(F)(F)F)cnc1C(=O)Nc1ccc(C(=O)N2CCN(C(=O)C3CCNCC3)CC2)c(Cl)c1 [Example Z29, 5-[1-(5-aminopyrazin-2-yl)-3-(trifluoromethyl)pyrazol-4-yl]-N-[3-chloro-4-(4-isonipecotoylpiperazine-1-carbonyl)phenyl]-1-methyl-imidazole-2-carboxamide]"
8,350,"C[C@@H]1CNC[C@H](C)N1C(=O)c1ccc(NC(=O)c2ncc(-c3cn(-c4ccc(N)cn4)nc3C(F)(F)F)n2C)cc1Cl [Example Z54, 5-[1-(5-amino-2-pyridyl)-3-(trifluoromethyl)pyrazol-4-yl]-N-[3-chloro-4-[(2S,6R)-2,6-dimethylpiperazine-1-carbonyl]phenyl]-1-methyl-imidazole-2-carboxamide]"
9,410,"Cn1c(-c2cn(-c3ccc(N)cn3)nc2C(F)(F)F)cnc1C(=O)Nc1ccc(C(=O)NCC2CCN(C(=O)[C@@H]3C[C@@H](O)CN3)CC2)c(Cl)c1 [Example Z34, 5-[1-(5-amino-2-pyridyl)-3-(trifluoromethyl)pyrazol-4-yl]-N-[3-chloro-4-[[1-[(2S,4R)-4-hydroxyprolyl]-4-piperidyl]methylcarbamoyl]phenyl]-1-methyl-imidazole-2-carboxamide]"
10,850,"Cn1c(-c2cn(-c3ccc(N)cn3)nc2C(F)(F)F)cnc1C(=O)Nc1ccc(C(=O)N2CCC(CN)CC2)c(Cl)c1 [Example Z14, N-[4-[4-(aminomethyl)piperidine-1-carbonyl]-3-chloro-phenyl]-5-[1-(5-amino-2-pyridyl)-3-(trifluoromethyl)pyrazol-4-yl]-1-methyl-imidazole-2-carboxamide]"
11,400,"Cn1c(-c2cn(-c3ccc(N)cn3)nc2C(F)(F)F)cnc1C(=O)Nc1ccc(C(=O)N2CCCNCC2)c(Cl)c1 [Example Z60, 5-[1-(5-amino-2-pyridyl)-3-(trifluoromethyl)pyrazol-4-yl]-N-[3-chloro-4-(1,4-diazepane-1-carbonyl)phenyl]-1-methyl-imidazole-2-carboxamide]"
12,410,"Cc1cc(-n2cc(-c3cnc(C(=O)Nc4ccc(C(=O)N5CCN(C(=O)C6CCNCC6)CC5)c(Cl)c4)n3C)c(C(F)(F)F)n2)cnc1N [Example Z77, 5-[1-(6-amino-5-methyl-3-pyridyl)-3-(trifluoromethyl)pyrazol-4-yl]-N-[3-chloro-4-[4-(piperidine-4-carbonyl)piperazine-1-carbonyl]phenyl]-1-methyl-imidazole-2-carboxamide]"
13,760,"Cn1c(-c2cn(-c3ccc(N)cn3)nc2C(F)(F)F)cnc1C(=O)Nc1ccc(C(=O)NCCN2CCNCC2)c(Cl)c1 [Example Z65, 5-[1-(5-amino-2-pyridyl)-3-(trifluoromethyl)pyrazol-4-yl]-N-[3-chloro-4-(2-piperazinoethylcarbamoyl)phenyl]-1-methyl-imidazole-2-carboxamide]"

# Same assay, conditions: Acinetobacter baumannii, ATCC17961, 16 h, read-out: ATCC 17961 IC90
row,SMILES,IC90 [nM]
1,"Cn1c(-c2cn(-c3ncccn3)nc2C(F)(F)F)cnc1C(=O)Nc1ccc(C(=O)N2CCN(C(=O)C3CCN(CC4CNC4)CC3)CC2)c(Cl)c1 [Example G1, N-[4-[4-[1-(Azetidin-3-ylmethyl)piperidine-4-carbonyl]piperazine-1-carbonyl]-3-chloro-phenyl]-1-methyl-5-[1-pyrimidin-2-yl-3-(trifluoromethyl)pyrazol-4-yl]imidazole-2-carboxamide]",390
2,"Cn1c(-c2cn(-c3ccc(N)cn3)nc2C(F)(F)F)cnc1C(=O)Nc1ccc(C(=O)N2CCC(CNC(=O)[C@@H]3C[C@@H](O)CN3)CC2)c(Cl)c1 [Example Z45, 5-[1-(5-amino-2-pyridyl)-3-(trifluoromethyl)pyrazol-4-yl]-N-[3-chloro-4-[4-[[[(2S,4R)-4-hydroxyprolyl]amino]methyl]piperidine-1-carbonyl]phenyl]-1-methyl-imidazole-2-carboxamide]",650
